# Source: patent US20240067633A1, “KETOHEXOKINASE INHIBITOR AND USE THEREOF” (SICHUAN HAISCO PHARMACEUTICAL CO., LTD., priority 2020, published 2024)
# Experiments:
# [1] = Pharmacokinetic experiment in rats; assay type: in vivo, SD rats
# Protocol: 2.1 Experimental animals: Male SD rats, about 220 g, 6-8 weeks old, 6 rats/compound, purchased from Hunan SJA Laboratory Animal Co., Ltd.
# 2.2 Experimental design: On the day of the experiment, 6 SD rats were randomly grouped according to their body weight. The animals were fasted with water available for 12 to 14 h one day before the administration, and were fed 4 h after the administration.
# (§1) Vehicle for intravenous administration: 5% DMA+5% Solutol+90% Saline; Vehicle for intragastric administration: 0.5% MC
# (§2) Before and after the administration, 0.15 mL of blood was taken from the orbit of the animals under isoflurane anaesthesia and placed in an EDTAK2 centrifuge tube. The blood was centrifuged at 5000 rpm and 4° C. for 10 min to collect plasma. Blood sampling time points for the intravenous administration group: 0, 5 min, 15 min, 30 min, 1 h, 2 h, 4 h, 6 h, 8 h, and 24 h; and blood sampling time points for the intragastric administration group: 0, 5 min, 15 min, 30 min, 1 h, 2 h, 4 h, 6 h, 8 h, and 24 h. Before analysis and detection, all samples were stored at −80° C.
# hKHK-C = hKHK-C (Homo sapiens (Human), UniProt P50053); assay: Experiment of inhibitory activity against KHK in vitro (ADP-glo), hKHKc; assay type: biochemical; settings: purified hKHK-C, 50 mM fructose, 0.2 mM ATP
# Protocol: (§3) With the involvement of ATP, fructokinase phosphorylates fructose to produce fructose-1-phosphate and ADP. In this experiment, the effect of the compound on the activity of fructokinase was determined by measuring the amount of ADP produced in the process. Test compound stocks were prepared in DMSO. Before use, the stocks were 3-fold serially diluted with assay buffers (25 mM HEPES, 300 mM KCl, 10 mM MgCl2, 10 mM CaCl2), pH 7.0) to 5-fold the final concentration tested, and the DMSO content was adjusted to 1%. In a 384-well plate, the test compound was added to achieve a final concentration of 7.6 nM to 100 μM (assay buffers containing 1% DMSO were added to background and control wells). 5 ng/μL purified hKHK-C (assay buffers were added to background wells), 50 mM fructose and 0.2 mM ATP were added to reach a total volume of 10 μL and reacted at room temperature for 30 min. After the reaction was completed, 10 μL of ADP-glo (promega) was added and mixed uniformly, and the plate was incubated at room temperature for 40 min. Then the ADP-glo was added again, mixed uniformly and reacted for 40 min. The spontaneous luminescence intensity was measured using an Envision microplate reader. The inhibition rate of the compound against […] was calculated using the following formula,
# (§4) [formula] • wherein • RLUZPE=luminescence intensity of control well • RLUblank=luminescence intensity of background well • RLUcpd=luminescence intensity of test compound well
# (§5) A curve of inhibition rate (y-axis) versus compound concentration (x-axis) was fitted by logarithmic (inhibitor) and normalized response (variable slope) in GraphPad Prism, and EC50 was calculated.
# CYP2D6 = CYP2D6 (Homo sapiens (Human), UniProt P10635); assay: CYP450 enzyme inhibition test, mixed human liver microsomes; assay type: in vitro ADME; settings: 0.05-50 μM
# [2] = Pharmacokinetic experiment in mice; assay type: in vivo, ICR mice
# Protocol: 3.1 Experimental animals: male ICR mice, about 22 g, 6-8 weeks old, 18 mice/compound, purchased from Hunan SJA Laboratory Animal Co., Ltd.
# 3.2 Experimental design: On the day of the experiment, 18 ICR mice were randomly grouped according to their body weight. The animals were fasted with water available for 12 to 14 h one day before the administration, and were fed 4 h after the administration.
# as §1
# as §2, with “0.08” for “0.15”
# CYP3A4 = CYP3A4 (Homo sapiens (Human), UniProt P08684); assay: CYP450 enzyme inhibition test, mixed human liver microsomes; assay type: in vitro ADME; settings: 0.05-50 μM
# hKHKa = hKHKa (Homo sapiens (Human), UniProt P50053); assay: Experiment of inhibitory activity against KHK in vitro (ADP-glo), hKHKa; assay type: biochemical
# Protocol: [The source words this procedure for another variant and reports this variant under the same test.] as §3, §4, §5
# mKHKc = mKHKc (Mus musculus (Mouse), UniProt P97328); assay: Experiment of inhibitory activity against KHK in vitro (ADP-glo), mKHKc; assay type: biochemical
# Protocol: [The source words this procedure for another species and reports this species under the same test.] as §3, with “5 ng/μL purified hKHK-C (assay buffers were added to background wells), 50 mM fructose and 0.2 mM ATP were added to reach a total volume of 10 μL and reacted at room temperature for 30 min. After the reaction was completed, 10 μL of ADP-glo (promega) was added and mixed uniformly, and the plate was incubated at room temperature for 40 min. Then the ADP-glo was added again, mixed uniformly and reacted for 40 min.” left out
# as §4, §5
# rKHKc = rKHKc (Rattus norvegicus (Rat), UniProt Q02974); assay: Experiment of inhibitory activity against KHK in vitro (ADP-glo), rKHKc; assay type: biochemical
# Protocol: [The source words this procedure for another species and reports this species under the same test.] as §3, with “5 ng/μL purified hKHK-C (assay buffers were added to background wells), 50 mM fructose and 0.2 mM ATP were added to reach a total volume of 10 μL and reacted at room temperature for 30 min. After the reaction was completed, 10 μL of ADP-glo (promega) was added and mixed uniformly, and the plate was incubated at room temperature for 40 min. Then the ADP-glo was added again, mixed uniformly and reacted for 40 min.” left out
# as §4, §5
# Sequence of hKHKa (P50053 other isoform, or with tags, fused parts or gaps): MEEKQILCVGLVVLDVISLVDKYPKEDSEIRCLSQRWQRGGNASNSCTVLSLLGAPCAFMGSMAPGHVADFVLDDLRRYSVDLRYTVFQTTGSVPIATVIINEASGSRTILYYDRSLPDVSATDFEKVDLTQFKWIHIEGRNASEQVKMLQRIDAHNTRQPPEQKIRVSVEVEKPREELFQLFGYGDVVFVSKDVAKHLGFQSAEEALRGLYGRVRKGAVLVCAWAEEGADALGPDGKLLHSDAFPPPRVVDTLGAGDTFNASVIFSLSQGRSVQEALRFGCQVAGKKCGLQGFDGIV
# Sequence of hKHK-C (P50053 whole entry): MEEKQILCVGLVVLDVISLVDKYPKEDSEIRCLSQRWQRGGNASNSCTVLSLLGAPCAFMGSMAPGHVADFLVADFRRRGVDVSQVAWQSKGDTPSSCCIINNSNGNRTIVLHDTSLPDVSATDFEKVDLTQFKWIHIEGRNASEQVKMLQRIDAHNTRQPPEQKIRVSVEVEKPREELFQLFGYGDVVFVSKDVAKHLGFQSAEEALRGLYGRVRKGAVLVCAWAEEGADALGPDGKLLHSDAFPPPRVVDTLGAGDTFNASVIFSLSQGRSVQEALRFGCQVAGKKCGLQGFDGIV
# Sequence of CYP2D6 (P10635 whole entry): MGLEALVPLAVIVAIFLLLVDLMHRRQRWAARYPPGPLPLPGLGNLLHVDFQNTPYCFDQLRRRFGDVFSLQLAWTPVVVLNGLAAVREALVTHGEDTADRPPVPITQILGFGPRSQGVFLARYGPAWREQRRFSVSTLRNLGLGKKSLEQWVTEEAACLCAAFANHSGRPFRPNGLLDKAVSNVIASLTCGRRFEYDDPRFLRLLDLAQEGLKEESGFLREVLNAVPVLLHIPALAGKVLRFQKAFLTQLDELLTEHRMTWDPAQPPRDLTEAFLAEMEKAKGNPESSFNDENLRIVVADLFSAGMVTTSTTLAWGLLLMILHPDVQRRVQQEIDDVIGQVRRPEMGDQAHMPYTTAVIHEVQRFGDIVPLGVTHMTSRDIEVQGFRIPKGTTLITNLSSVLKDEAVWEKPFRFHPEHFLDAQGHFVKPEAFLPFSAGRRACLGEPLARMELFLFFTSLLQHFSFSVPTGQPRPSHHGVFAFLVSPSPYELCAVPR
# Sequence of rKHKc (Q02974 whole entry): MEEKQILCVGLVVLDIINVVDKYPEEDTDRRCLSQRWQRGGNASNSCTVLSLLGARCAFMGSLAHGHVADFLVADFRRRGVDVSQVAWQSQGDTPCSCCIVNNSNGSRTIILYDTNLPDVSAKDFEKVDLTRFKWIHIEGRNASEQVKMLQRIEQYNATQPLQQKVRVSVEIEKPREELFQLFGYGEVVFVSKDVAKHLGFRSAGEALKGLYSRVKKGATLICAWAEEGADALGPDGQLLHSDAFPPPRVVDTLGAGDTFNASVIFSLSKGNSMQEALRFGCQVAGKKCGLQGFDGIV
# Sequence of CYP3A4 (P08684 whole entry): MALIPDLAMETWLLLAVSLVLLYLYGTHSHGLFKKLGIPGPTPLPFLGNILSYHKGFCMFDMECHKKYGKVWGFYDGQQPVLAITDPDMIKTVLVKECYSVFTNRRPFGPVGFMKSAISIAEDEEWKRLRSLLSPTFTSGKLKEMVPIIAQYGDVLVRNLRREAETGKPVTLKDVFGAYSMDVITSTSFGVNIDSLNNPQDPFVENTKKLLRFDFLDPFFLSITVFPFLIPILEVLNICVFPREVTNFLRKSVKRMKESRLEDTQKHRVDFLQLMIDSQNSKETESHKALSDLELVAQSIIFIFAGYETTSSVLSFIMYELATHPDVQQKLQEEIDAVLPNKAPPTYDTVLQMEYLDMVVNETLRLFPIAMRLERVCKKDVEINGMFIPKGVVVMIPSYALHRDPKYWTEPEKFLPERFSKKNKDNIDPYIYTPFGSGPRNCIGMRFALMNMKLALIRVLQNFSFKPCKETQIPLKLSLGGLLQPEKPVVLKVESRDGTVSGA
# Sequence of mKHKc (P97328 whole entry): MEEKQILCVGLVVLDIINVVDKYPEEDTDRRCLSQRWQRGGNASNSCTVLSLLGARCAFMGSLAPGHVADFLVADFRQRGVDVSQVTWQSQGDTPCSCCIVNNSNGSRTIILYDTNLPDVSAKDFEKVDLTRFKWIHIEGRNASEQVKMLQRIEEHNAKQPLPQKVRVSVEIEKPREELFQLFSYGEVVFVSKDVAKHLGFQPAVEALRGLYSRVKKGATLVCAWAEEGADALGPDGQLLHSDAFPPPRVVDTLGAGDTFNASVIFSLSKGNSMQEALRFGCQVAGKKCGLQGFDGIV
compound,measurement,setting,value
"2-((1R,5S,6S)-3-(7,7-difluoro-2-((S)-2-(trifluoromethyl)azetidin-1-yl)-6,7-dihydro-5H-cyclopenta[d]pyrimidin-4-yl)-3-azabicyclo[3.1.1]heptan-6-yl)acetic acid [Isomer 2 of compound 20]",F,[1]; i.g. 5 mg/kg,111%
same,AUC0-t,"[1]; plasma, i.g. 5 mg/kg",64058 ng·h/mL
same,AUC0-t,"[1]; plasma, i.v. 1 mg/kg",11592 ng·h/mL
same,CL,"[1]; plasma, i.v. 1 mg/kg",1.35 mL/min/kg
same,Vdss,"[1]; plasma, i.v. 1 mg/kg",0.568 L/kg
same,EC50,hKHK-C,0.0498 µM
same,IC50,CYP2D6,> 50 µM
same,F,[2]; i.g. 3 mg/kg,87.2%
same,AUC0-t,"[2]; plasma, i.g. 3 mg/kg",4807 ng·h/mL
same,AUC0-t,"[2]; plasma, i.v. 1 mg/kg",1838 ng·h/mL
same,CL,"[2]; plasma, i.v. 1 mg/kg",8.84 mL/min/kg
same,Vdss,"[2]; plasma, i.v. 1 mg/kg",0.977 L/kg
same,IC50,CYP3A4,> 50 µM
"C[C@H]1CCN1c1nc(N2CCC(CC(=O)O)C2)c2c(c1C#N)C(F)(F)CC2 (single isomer, unassigned) [Isomer 1 of compound 8]",EC50,hKHK-C,0.0586 µM
same,EC50,hKHKa,0.0597 µM
"C[C@H]1CCN1c1nc(N2C[C@H]3C[C@@H](C2)[C@@H]3CC(=O)O)c2c(n1)C(F)(F)CCC2 (single isomer, unassigned; isomer 2) [Isomer 2 of compound 3]",EC50,mKHKc,0.134 µM
same,EC50,hKHK-C,0.0374 µM
same,EC50,rKHKc,0.146 µM
same,EC50,hKHKa,0.0518 µM
"C[C@H]1CCN1c1nc(N2C[C@H]3C[C@@H](C2)[C@@H]3CC(=O)O)c2c(n1)C(F)(F)CC2 (single isomer, unassigned; isomer 2) [Isomer 2 of compound 4]",EC50,hKHK-C,0.0194 µM
"O=C(O)C[C@H]1[C@@H]2C[C@H]1CN(c1nc(N3CC[C@H]3C(F)F)nc3c1CCC3(F)F)C2 (single isomer, unassigned; isomer 2) [Isomer 2 of compound 19]",EC50,hKHK-C,0.0606 µM
"C[C@H]1CCN1c1nc(N2CC(CC(=O)O)C2)c2c(c1C#N)C(F)(F)CC2 [Compound 7, (S)-2-(1-(4-cyano-5,5-difluoro-3-(2-methylazetidin-1-yl)-6,7-dihydro-5H-cyclopenta[c]pyridin-1-yl)azetidin-3-yl)acetic acid]",EC50,hKHK-C,0.0365 µM
same,EC50,hKHKa,0.0352 µM
"[2H]C([2H])([2H])[C@H]1CCN1c1nc(N2C[C@H]3C[C@@H](C2)C3CC(=O)O)c2c(n1)C(F)(F)CC2 (stereo partly drawn) [Compound 16, 2-((1R,5S,6R)-3-(7,7-difluoro-2-((S)-2-(methyl-d3)azetidin-1-yl)-6,7-dihydro-5H-cyclopenta[d]pyrimidin-4-yl)-3-azabicyclo[3.1.1]heptan-6-yl)acetic acid]",EC50,hKHK-C,0.0377 µM
"[2H]C([2H])([2H])[C@H]1CCN1c1nc(N2CC(CC(=O)O)C2)c2c(c1C#N)C(F)(F)CC2 [Compound 18, (S)-2-(1-(4-cyano-5,5-difluoro-3-(2-(methyl-d3)azetidin-1-yl)-6,7-dihydro-5H-cyclopenta[c]pyridin-1-yl)azetidin-3-yl)acetic acid]",EC50,hKHK-C,0.0527 µM
